The record followed here is patent publication US20250099474A1 (priority 2022, published 2025).

Data set [1] is described as follows: Phase 2/3 study: frequency of adverse events. It is filed as in vivo, human. The conditions noted are these: for Adverse events leading to discontinuation of administration, causally related to the investigational new drug: recovering or recovered after discontinuation.
For data set [2] the following is noted: monkey, in vivo.
The subject of another data set is SARS-CoV-2. In words: Phase 2/3 study, Phase 2a Part: SARS-CoV-2 virus titer. Type of data set: in vivo, human. To be noted: for Change from baseline in SARS-CoV-2 virus titer compared to placebo group: mITT, significance level 0.05. The protocol: The primary endpoint of Phase 2a Part was the change from baseline in SARS-CoV-2 virus titer at each time point in common among mild/moderate and asymptomatic SARS-CoV-2-infected patients, and the antiviral effect of the active drug was confirmed.
The administration of the active drug is repeated oral administration once a day for 5 days. The 375/125 mg group received 375 mg on Day 1 as a loading dose and 125 mg on Days 2 to 5 as a maintenance dose. The 750/250 mg group received 750 mg on Day 1 as a loading dose and 250 mg on Days 2 to 5 as a maintenance dose.
The primary efficacy endpoint of Phase 2a Part was the change from baseline in SARS-CoV-2 virus titer at each time point in common among mild/moderate and asymptomatic SARS-CoV-2-infected patients. It was defined as an absolute change from baseline in observed value of SARS-CoV-2 virus titer at each time point.
For each population of the mild/moderate SARS-CoV-2-infected patients, the asymptomatic SARS-CoV-2-infected patients, and the merged population thereof, summary statistics of the change from baseline in SARS-CoV-2 virus titer at each time point were calculated for the mITT population. Furthermore, a van Elteren test was applied to a combined population of mild/moderate and asymptomatic SARS-CoV-2-infected patients. Pairwise comparisons were made between each active drug dose group and the placebo group for SARS-CoV-2 virus titer at each time point at a two-sided significance level of 5%. The population of the mild/moderate SARS-CoV-2-infected patients and the population of the asymptomatic SARS-CoV-2-infected patients were used as strata in the van Elteren test.
In addition, when the virus titer was less than the lower detection limit (0.8 log10 (TCID50/mL)), the value of the virus titer was handled as 0.8 log10 (TCID50/mL). […] In the RT-PCR measurement results and the virus titer measurement results that were available by the time point of Jan.

Take `Cn1cnc(Cn2c(=O)[nH]/c(=N\c3cc4cn(C)nc4cc3Cl)n(Cc3cc(F)c(F)cc3F)c2=O)n1` [(6E)-6-[(6-chloro-2-methyl-2H-indazol-5-yl)imino]-3-[(1-methyl-1H-1,2,4-triazol-3-yl)methyl]-1-[(2,4,5-trifluorophenyl)methyl]-1,3,5-triazinane-2,4-dione]: the “Adverse events leading to deaths” value in data set [1] (Phase 2a Part) and in data set [1] (Phase 3 Part) was “no adverse events leading to deaths” throughout. The “Deaths, serious adverse events, adverse events leading to discontinuation of administration” value in data set [1] (Phase 2a Part) is “no deaths, serious adverse events, or adverse events leading to discontinuation of administration”. Besides, the “Adverse events leading to the discontinuation of administration” value in data set [1] (Phase 2a Part, 375/125 mg group, both causally related to the investigational new drug) is recorded as “Two adverse events leading to the discontinuation of administration were observed”. Also, the serious adverse events result in data set [1] (Phase 2a Part, active drug group) is recorded as “not in the active drug group”. Further, the Serious adverse event entry in data set [1] (Phase 3 Part, 375/125 mg group, no causal relationship with the investigational new drug) is “observed in one case”. The “Adverse events leading to discontinuation of administration, causally related to the investigational new drug” value in data set [1] (Phase 3 Part, 375/125 mg group) was “eczema and emesis”; in data set [1] (Phase 3 Part, 750/250 mg group), “rash (2 cases)”. Besides, the “NOAEL (plasma concentration)” value in data set [2] lay in the range of 75.2 to 77.6 µg/mL. The “Decrease of proportion of patients with a positive virus titer of 0.8 or more, with respect to placebo group” value in the data set on SARS-CoV-2 (Day 4, 375/125 mg group) was determined as 63%; in the data set with SARS-CoV-2 (Day 4, 750/250 mg group), 80%; in the data set on SARS-CoV-2 (Day 6, 375/125 mg group) it was 100%; in the data set with SARS-CoV-2 (Day 6, 750/250 mg group), 54%. Also, the “Change from baseline in SARS-CoV-2 virus titer compared to placebo group” value with SARS-CoV-2 (375/125 mg group, Visit 3 (Day 4)) is reported as “statistically significantly decreased”; in the data set with SARS-CoV-2 (750/250 mg group, Visit 2 (Day 2) and Visit 3 (Day 4)), “statistically significantly decreased”. Also, the “SARS-CoV-2 virus titer compared to placebo group” value is recorded as “tendency for the virus titer to decrease” in the data set with SARS-CoV-2 (results available by Jan. 17, 2022, 375/125 mg group, all time points after Visit 3 (Day 4)) and “tendency for the virus titer to decrease” in the data set with SARS-CoV-2 (results available by Jan. 17, 2022, 750/250 mg group, all time points after Visit 2 (Day 2)).
